Laboratory results taken from US8372808B2, “Suppression of glial fibrillary acidic protein” (Wisconsin Alumni Research Foundation, priority 2008, dated 2013).
Read-outs that look alike come from different tables or passages of the source.

Key:
[1] = system: 2.2 kb human GFAP promoter; experiment: hGFAP promoter luciferase activity assay in 172.9 cells (primary astrocytes from dual luciferase transgenic mice); type: cell-based; settings: for % GFAP reductions, luciferace expression from hGFAP promoter: tertiary screen, 48 hr exposure, at the MTDcc; for suppression in the promoter assay: secondary screen, 10 μM, 48 hours
Method: Cell-based assays were performed as four different screens using enriched cortical primary astrocyte cultures developed from transgenic mice expressing both firefly and Renilla luciferase reporter genes were generated. Briefly, the'firefly luciferase was placed under the control of a 2.2 kb human GFAP promoter to monitor GFAP transcription, and the Renilla luciferase was placed under the control of a 0.5 kb human GAPDH (glyceraldehyde 3-phosphate dehydrogenase) promoter to monitor transcription of a housekeeping gene for signal normalization. See section B, below for more detail regarding the development of transgenic mouse strains. Cells used in the following examples (e.g., the cortical primary astrocyte cells termed “172.9 cells,” described below) were developed from the transgenic mice described in section B.
Briefly, the cortices from individual pups were freed of meninges and placed into DMEM (Gibco) without serum, mechanically disassociated into single cells, suspended in medium containing DMEM supplemented with 10% fetal bovine serum (FBS; Hyclone), 100 U/ml penicillin, 100 μg/ml streptomycin (Gibco), seeded into T25 flasks (one brain per flask), and maintained in a humidified 5% CO2 atmosphere at 37° C. […] Medium was changed every 3 days. At 14-16 days in vitro (DIV), the flasks were shaken overnight at 200 rpm to remove oligodendrocytes and microglia. […] The cells were then suspended in DMEM with 10% FBS and plated (“passage 2”) on either 35 mm dishes, […], or 96-well plates (Corning) as needed. Cells were grown for varying days in vitro (DIV) at passage 2 and then used for various experiments. Tissue culture dishes and plates were pre-coated with 100 μg/ml poly-L-lysine for 1 h in a humidified 5% CO2 atmosphere at 37° C., and then allowed to air dry. […] Cell density was measured with the Vi-CELL cell counter (Beckman Coulter) or hemocytometer by the trypan-blue exclusion method. For simplicity, cells are referred to as “172.9 cells.”
Briefly, 172.9 cells were plated on poly-L coated white 96-well plates at a density of 5000 cells per well, in 100 μl DMEM with 10% FBS. At twenty-four hours, cells were exposed to the different compounds at a final concentration of 10 μM (diluted from a 50 mM stock) prepared in new medium (DMEM with 10% FBS). […] After exposure to compounds, luciferase activity in the primary and secondary screenings was determined by adding 30 μl of Bright-Glo™ reagent (Promega) to the 100 μl of media and cells of each well in the white 96-well plates with the Biomek® FX liquid handler (Beckman Coulter). After incubation for 1 minute at room temperature, signals were measured with the Safire 2 plate reader using Magellan™ software (Tecan). Other specific methods and equipment are known in the art and can be used to measure luciferase expression levels. This assay method is termed the “hGFAP promoter luciferase activity assay.” A reduction in luciferase expression as determined by this assay is termed “hGFAP promoter luciferase reduction.” For some assays that were aimed at confirming results of the initial screens, the same amount of Bright-Glo™ reagent was applied to each well in 96-well plates and signals were detected with the GloRunner™ Microplate Luminometer (Turner Biosystems) using the Dual-Glo® luciferase assay according to the manufacturer's recommendations (E1910, Promega).
In the secondary screen, cells were plated in a 96-well plate as described above for the primary screen.
Some compounds were unavailable outside of the library collections, and could not be further tested.
Each compound and concentration was analyzed in quadruplicate wells.
Compounds were tested at eight different concentrations ranging from 0-20 μM. In addition, GFAP protein levels were measured using a sandwich ELISA, which has greater sensitivity and is more accurate than the cell-based ELISA used in the primary screens.

mGFAP protein = experiment: cell-based GFAP protein level assay (cell-based ELISA) in 172.9 cells; parameters: species or system mouse; settings: for % GFAP reductions, mGFAP protein via ELISA: tertiary screen, 48 hr exposure, at the MTDcc; for suppression in the protein assay: secondary screen, 10 μM, 48 hours
172.9 cells = experiment: cell viability (CellTiter-Glo) / MTDcc in 172.9 cells
Method: Criterion for acceptable viability was >70% survival.
Cell viability was determined as follows. After exposure to each compound (duplicate wells per compound), 50 μl of CellTitier-Glo Luminescent Cell Viability Assay reagent (G7571, Promega) was added to the 100 μl of media present in each well, and the luminescent signal (reflecting intracellular ATP level) was detected with either a Victor 3-V plate reader (Perkin Elmer) or GloRunner Microplate Luminometer (Turner Biosystems). Cell viability was expressed as a percent of non-treated control cells.
A dose-response curve was created for each compound (0.1, 0.5, 1, 5, 10, 15, 20 μM) using 48 hr exposures. The MTDcc (“maximum tolerated dose—cell culture”) indicates the highest concentration that retained at least 70% cell viability. Each compound and concentration was analyzed in quadruplicate wells. EGCDG: epigallocatechin 3,5-digallate; NPPB: 5-nitro-2-phenylproplyaminobenzoic acid. As used herein, MTDcc refers to the MTD as determined by this assay under the above conditions.

[2] = tertiary screen, 48 hr exposure, 0.1-20 μM, highest concentration that retained at least 70% cell viability

CC(=O)Nc1ccc(OC(=O)c2ccccc2O)cc1 [4-acetamidophenyl salicylate]
% GFAP reductions, luciferace expression from hGFAP promoter [1]: 17%
% GFAP reductions, mGFAP protein via ELISA (mGFAP protein): 8.6%
MTDcc (172.9 cells; mouse, 48 h): >20 µM

O=C(O)c1cc([N+](=O)[O-])ccc1NCCCc1ccccc1 [5-nitro-2-phenylproplyaminobenzoic acid]
% GFAP reductions, luciferace expression from hGFAP promoter [1]: 16%
% GFAP reductions, mGFAP protein via ELISA (mGFAP protein): 0.4%
MTDcc (172.9 cells; [2]): >20 µM

CC1(C)C(=O)C=C[C@]2(C)[C@H]3CC[C@@]4(C)[C@H](c5ccoc5)OC(=O)[C@H]5O[C@]54[C@]3(C)C=C[C@@H]12 [7-desacetoxy-6,7-dehydrogedunin]
suppression in the promoter assay [1]: significant suppression
suppression in the protein assay (mGFAP protein): significant suppression

CCOC(=O)C1=C(COCCN)NC(C)=C(C(=O)OC)C1c1ccccc1Cl (stereo not shown) [amlodipine besylate]
suppression in the promoter assay [1]: significant suppression
suppression in the protein assay (mGFAP protein): significant suppression

CCOC(=O)C1=C(COCCN)NC(C)=C(C(=O)OC)C1c1ccccc1Cl (stereo not shown) [amlodipine]
% GFAP reductions, luciferace expression from hGFAP promoter [1]: 44%
MTDcc (172.9 cells; [2]): 12.5 µM

COP(=S)(OC)SCn1nnc2ccccc2c1=O [azinphos methyl]
% GFAP reductions, luciferace expression from hGFAP promoter [1]: 18%
% GFAP reductions, mGFAP protein via ELISA (mGFAP protein): 4.7%
MTDcc (172.9 cells; [2]): >20 µM

C=C(C)[C@@H]1CC[C@]2(C(=O)O)CC[C@]3(C)[C@H](CC[C@@H]4[C@@]5(C)CC[C@H](O)C(C)(C)[C@@H]5CC[C@]43C)[C@@H]12 [betulinic acid]
% GFAP reductions, luciferace expression from hGFAP promoter [1]: 13%
% GFAP reductions, mGFAP protein via ELISA (mGFAP protein): 6.3%
MTDcc (172.9 cells; mouse, 48 h): >20 µM

O=C(N[C@H](CO)[C@H](O)c1ccc([N+](=O)[O-])cc1)C(Cl)Cl [chloramphenicol]
% GFAP reductions, luciferace expression from hGFAP promoter [1]: 16%
% GFAP reductions, mGFAP protein via ELISA (mGFAP protein): 0.9%
MTDcc (172.9 cells; mouse, 48 h): >20 µM

CN(C)CC/C=C1/c2ccccc2Sc2ccc(Cl)cc21 [chlorprothixene]
% GFAP reductions, luciferace expression from hGFAP promoter [1]: 60%
% GFAP reductions, mGFAP protein via ELISA (mGFAP protein): −3.6%
MTDcc (172.9 cells; mouse, 48 h): 17.5 µM

Cc1cc(O)c2c(c1)C(=O)c1cccc(O)c1C2=O [chrysophanol]
% GFAP reductions, luciferace expression from hGFAP promoter [1]: 66%
% GFAP reductions, mGFAP protein via ELISA (mGFAP protein): 18.6%
MTDcc (172.9 cells; [2]): 12.5 µM

CCC(=O)O[C@]1(C(=O)CCl)[C@@H](C)C[C@H]2[C@@H]3CCC4=CC(=O)C=C[C@]4(C)[C@@]3(F)[C@@H](O)C[C@@]21C [clobetasol propionate]
% GFAP reductions, luciferace expression from hGFAP promoter [1]: 25%
% GFAP reductions, mGFAP protein via ELISA (mGFAP protein): −7.6%
MTDcc (172.9 cells; mouse, 48 h): >20 µM

C=C1CC[C@H](O)C/C1=C/C=C1\CCC[C@]2(C)[C@@H]([C@H](C)CCCC(C)C)CC[C@@H]12 [colecalciferol]
% GFAP reductions, luciferace expression from hGFAP promoter [1]: 24%
% GFAP reductions, mGFAP protein via ELISA (mGFAP protein): −4.9%
MTDcc (172.9 cells; [2]): >20 µM

CCOP(=S)(OCC)Oc1ccc2c(C)c(Cl)c(=O)oc2c1 [coumophos]
% GFAP reductions, luciferace expression from hGFAP promoter [1]: 10%
% GFAP reductions, mGFAP protein via ELISA (mGFAP protein): 0.4%
MTDcc (172.9 cells): >20 µM

CN(C)/N=N/c1[nH]cnc1C(N)=O [decarbazine]
% GFAP reductions, luciferace expression from hGFAP promoter [1]: 7%
% GFAP reductions, mGFAP protein via ELISA (mGFAP protein): 2.4%
MTDcc (172.9 cells; mouse, 48 h): >20 µM

CCOC(=O)NC1=C(N2CC2)C(=O)C(NC(=O)OCC)=C(N2CC2)C1=O [diaziquone]
suppression in the promoter assay [1]: significant suppression
% GFAP reductions, luciferace expression from hGFAP promoter [1]: 86%
suppression in the protein assay (mGFAP protein): significant suppression
% GFAP reductions, mGFAP protein via ELISA (mGFAP protein): 9.5%
MTDcc (172.9 cells; mouse, 48 h): >20 µM

CCCCCCCCCCCC1=C(O)C(=O)C=C(O)C1=O [embelin]
% GFAP reductions, luciferace expression from hGFAP promoter [1]: 37%
% GFAP reductions, mGFAP protein via ELISA (mGFAP protein): 10.8%
MTDcc (172.9 cells; mouse, 48 h): 7.5 µM

CC(C)(C)c1ccc(C(O)CCCN2CCC(C(O)(c3ccccc3)c3ccccc3)CC2)cc1 (stereo not shown) [terfenadine]
% GFAP reductions, luciferace expression from hGFAP promoter [1]: 14%
MTDcc (172.9 cells; mouse, 48 h): 2.5 µM
